pIC50: −log10 of the molar value. Counter-ions that a name gives are not always drawn.
Each compound was assayed against HPK1 (Homo sapiens (Human), UniProt Q92918) (assay: HPK1 biochemical enzyme assay (microfluidic mobility shift assay)). Settings: 1.5 nM HPK1, ATP 1 mM final, 30 min preincubation, 60 min at RT, Caliper EZ Reader; read-out: HPK1 1000UMATP caliper IC50.
Procedure, shortened: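 Mobility shift readout of HPK1 activity after a 60 min RT reaction with 1 mM ATP, 1 μM substrate and 5 mM MgCl2. Enzyme/substrate mix was first exposed to compounds for 30 min, using ten-point curves topping at 3 μM final.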

Sequence of HPK1 (Q92918 whole entry): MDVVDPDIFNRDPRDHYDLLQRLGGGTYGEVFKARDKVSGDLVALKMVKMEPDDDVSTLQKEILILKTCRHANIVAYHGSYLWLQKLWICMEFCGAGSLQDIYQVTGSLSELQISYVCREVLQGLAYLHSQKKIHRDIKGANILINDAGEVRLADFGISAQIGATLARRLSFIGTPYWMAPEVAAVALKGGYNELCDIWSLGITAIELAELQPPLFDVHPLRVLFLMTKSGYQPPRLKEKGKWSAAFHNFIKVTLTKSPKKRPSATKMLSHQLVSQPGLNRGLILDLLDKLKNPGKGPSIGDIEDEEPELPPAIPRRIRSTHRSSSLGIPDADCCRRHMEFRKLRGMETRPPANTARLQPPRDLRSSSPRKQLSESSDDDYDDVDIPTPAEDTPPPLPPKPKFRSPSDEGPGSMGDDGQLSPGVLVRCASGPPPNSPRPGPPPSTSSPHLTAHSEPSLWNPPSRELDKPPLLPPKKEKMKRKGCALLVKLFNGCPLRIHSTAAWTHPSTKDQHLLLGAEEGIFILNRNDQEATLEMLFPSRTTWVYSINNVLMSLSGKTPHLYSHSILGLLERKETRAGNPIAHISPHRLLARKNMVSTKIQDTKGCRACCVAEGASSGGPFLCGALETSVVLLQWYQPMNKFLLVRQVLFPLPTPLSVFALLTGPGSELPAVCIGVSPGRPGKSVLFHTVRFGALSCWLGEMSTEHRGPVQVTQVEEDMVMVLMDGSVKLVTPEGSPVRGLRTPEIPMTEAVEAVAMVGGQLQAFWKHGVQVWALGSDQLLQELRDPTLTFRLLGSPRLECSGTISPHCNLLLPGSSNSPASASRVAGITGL

Structure (SMILES)	pIC50
CN(C)Cc1nc(Nc2ccc(-c3cnc4cc(C(F)F)ccn34)c3c2C(=O)NC3)ccc1C1CCOC1 (stereo in doubt) [I-752, (S)-4-(7-(difluoromethyl)-imidazo[1,2-a]pyridin-3-yl)-7-((6-((dimethylamino)-methyl)-5-(tetrahydrofuran-3-yl)pyridin-2-yl)amino)isoin-dolin-1-one]	> 7.00
Cc1cn(C)c2nccc(-c3ccc(Nc4ccc(N5CCNCC5)cn4)c4c3CNC4=O)c12 [I-98]	> 7.00
CC(C)(C)NCc1nc(Nc2ccc(-c3cnc4cc(F)ccn34)c3c2C(=O)NC3)ccc1C1CCOC1 (stereo not shown) [I-848, 7-[[6-[(tert-butylamino)methyl]-5-tetrahydrofuran-3-yl-2-pyridyl]amino]-4-(7-fluoroimidazo [1,2-a]pyridin-3-yl)isoindolin-1-one]	> 7.00
Cn1ccc2c(-c3ncc(Nc4ccc(N5CC[C@@H](F)[C@H](O)C5)cn4)c4c3CNC4=O)ccnc21 [I-416, 7-((5-((3R,4R)-4-fluoro-3-hydroxy-piperidin-1-yl)pyridin-2-yl)amino)-4-(1-methyl-1H-pyrrolo[2,3-b]pyridin-4-yl)-2,3-dihydro-1H-pyrrolo[3,4-c]pyridin-1-one]	> 7.00
O=C1NCc2c(-c3cnn4ccccc34)ccc(Nc3ccc(N4CCNCC4)cn3)c21 [I-90, 7-[(5-piperazin-1-yl-2-pyridyl)amino]-4-pyrazolo[1,5-a]pyridin-3-yl-isoindolin-1-one]	> 7.00
C[C@H](O)[C@H]1CCCN(c2ccc(Nc3ccc(-c4cnc5cc(F)ccn45)c4c3C(=O)NC4)nc2)C1 (stereo in doubt) [I-356, 4-(7-fluoroimidazo [1,2-a]pyridin-3-yl)-7-((5-((R)-3-((R)-1-hydroxyethyl)piperidin-1-yl)pyridin-2-yl)amino)isoin-dolin-1-one]	> 7.00
N#Cc1ccn2c(-c3ccc(Nc4ccc(N5CCNCC5)cn4)c4c3CNC4=O)cnc2c1 [I-120]	> 7.00
Cn1ccc2c(-c3ncc(Nc4ccc(N5CCC[C@H](C(C)(C)O)C5)cn4)c4c3CNC4=O)cccc21 [I-216, 7-[[5-[(3S)-3-(1-hydroxy-1-methyl-ethyl)-1-piperidyl]-2-pyridyl]-amino]-4-(1-methylindol-4-yl)-2,3-dihydropyrrolo [3,4-c]pyridin-1-one]	> 7.00
Cn1cnc2c(-c3ccc(Nc4ccc(N5CCC(O)CC5)cn4)c4c3CNC4=O)cccc21 [I-173, 7-[[5-(4-hydroxy-1-piperidyl)-2-pyridyl]amino]-4-(1-methylbenz-imidazol-4-yl)isoindolin-1-one]	> 7.00
CN1CCN(c2ccc(Nc3ccc(-c4ccnc5c4CCN5)c4c3C(=O)NC4)nc2)CC1 [I-68, 4-(2,3-dihydro-1H-pyrrolo[2,3-b]pyridin-4-yl)-7-[[5-(4-methylpiperazin-1-yl)-2-pyridyl]amino] isoindolin-1-one]	> 7.00
CN1CC[C@@]12CCN(c1cccc(Nc3cnc(-c4ccnc5c4ccn5C)c4c3C(=O)NC4)n1)C2 [I-616, (S)-7-((6-(1-methyl-1,6-diazaspiro[3,4]octan-6-yl)pyridin-2-yl)amino)-4-(1-methyl-1H-pyrrolo[2,3-b)pyridin-4-yl)-2,3-dihydro-1H-pyrrolo[3,4-c]pyridin-1-one]	> 7.00
Cn1ccc2c(-c3ccc(Nc4ccc(N5CCC(O)CC5)cn4)c4c3CNC4=O)ccnc21 [I-75, 7-[[5-(4-hydroxy-1-piperidyl)-2-pyridyl]amino]-4-(1-methylpyrrolo [2,3-b]pyridin-4-yl)isoindolin-1-one]	> 7.00
Cc1ccn2c(-c3ccc(Nc4ccc(N5CCOC(CN(C)C)C5)cn4)c4c3CNC4=O)cnc2c1F (stereo in doubt) [I-613, (S)-7-((5-(2-((dimethylamino)-methyl)mor-pholino)pyridin-2-yl)amino)-4-(8-fluoro-7-methylimidazo [1,2-a]pyridin-3-yl)isoindolin-1-one]	> 7.00
CN(C)Cc1nc(Nc2ccc(-c3cnc4cc(F)ccn34)c3c2C(=O)NC3)ccc1C1(O)CCOCC1 [I-719, 7-((6-((dimethylamino)-methyl)-5-(4-hydroxytetra-hydro-2H-pyran-4-yl)pyridin-2-yl)amino)-4-(7-fluoroimidazo [1,2-a]pyridin-3-yl)isoindolin-1-one]	> 7.00
Cc1cc(Nc2cnc(-c3ccnc4c3ccn4C)c3c2C(=O)NC3)nc(N2CC[C@@H]3CN(C)C[C@@H]32)c1 [I-644, 4-(1-methyl-1H-pyrrolo[2,3-b]pyridin-4-yl)-7-((4-methyl-6-((3aR,6aR)-5-methylhexahydropyrrolo[3,4-b]pyrrol-1(2H)-yl)pyridin-2-yl)amino)-2,3-dihydro-1H-pyrrolo[3,4-c]pyridin-1-one]	6.00 to 7.00
Cn1ccc2c(-c3ncc(Nc4ccc(N5CCC[C@@H](C(C)(C)O)C5)cn4)c4c3CNC4=O)cccc21 [I-223, 7-[[5-[(3R)-3-(1-hydroxy-1-methyl-ethyl)-1-piperipyl]-2-pyridyl]-amino]-4-(1-methylindol-4-yl)-2,3-dihydropyrrolo [3,4-c]pyridin-1-one]	> 7.00
Cn1cnc2c(-c3ccc(Nc4ccc(N5CCNCC5)cn4)c4c3CNC4=O)cccc21 [I-122, 4-(1-methylbenzimidazol-4-yl)-7-[(5-piperazin-1-yl-2-pyridyl)amino] isoindolin-1-one]	> 7.00
O=C1NCc2c(-c3cnc4cc(F)ccn34)ccc(Nc3ccc(N4CCO[C@H](CO)C4)cn3)c21 [I-454, 4-(7-fluoroimidazo [1,2-a]pyridin-3-yl)-7-[[5-[(2S)-2-(hydroxymeth-yl)morpliolin-4-yl]-2-pyridyl]amino] isoindolin-1-one]	> 7.00
COc1cc(Nc2cnc(-c3ccnc4c3ccn4C)c3c2C(=O)NC3)nc(N2CC[C@@H]3CNC[C@@H]32)c1 [I-682, 7-((6-((3aR,6aR)-hexahydro-pyrrolo[3,4-b]pyrrol-l(2H)-yl)-4-methoxypyridin-2-yl)amino)-4-(1-methyl-1H-pyrrolo[2,3-b]pyridin-4-yl)-2,3-dihydro-1H-pyrrolo[3,4-c]pyridin-1-one]	6.00 to 7.00
C[C@@H]1COCCN1c1ccc(Nc2ccc(-c3cnc4cc(F)ccn34)c3c2C(=O)NC3)nc1CN(C)C [I-528, 7-[[6-[(dimethylamino)-methyl]-5-[(3R)-3-methylmorpho-lin-4-yl J-2-pyridyl]amino]-4-(7-fluoroimidazo [1,2-a]pyridin-3-yl)isoindolin-1-one Formic acid salt]	> 7.00
CC(C)(O)[C@H]1CCCN(c2ccc(Nc3ccc(-c4cnc5cnccn45)c4c3C(=O)NC4)nc2)C1 [I-310, (S)-7-((5-(3-(2-hydroxypropan-2-yl)piperidin-1-yl)pyridin-2-yl)amino)-4-(imidazo[1,2-a]pyrazin-3-yl)isoindolin-1-one]	> 7.00
Cc1ccn2c(-c3ccc(Nc4ccc(C5(O)CCOCC5)cn4)c4c3CNC4=O)cnc2c1F [I-587, 4-(8-fluoro-7-methylimidazo [1,2-a]pyridin-3-yl)-7-((5-(4-hydroxytetra-hydro-2H-pyran-4-yl)pyridin-2-yl)amino)isoin-dolin-1-one]	> 7.00

More lines, now with the values ahead:

pIC50	Structure (SMILES)
> 7.00	COC[C@]1(O)CCCN(c2ccc(Nc3ccc(-c4cnc5cc(F)ccn45)c4c3C(=O)NC4)nc2)C1 [I-393, (S)-4-(7-fluoroimidazo [1,2-a]pyridin-3-yl)-7-((5-(3-hydroxy-3-(methoxymeth-yl)piperidin-1-yl)pyridin-2-yl)amino)isoin-dolin-1-one]
> 7.00	CN1CCN(CC2(O)CCN(c3ccc(Nc4cnc(-c5cnc6ccccn56)c5c4C(=O)NC5)nc3)CC2)CC1 [I-648, 7-((5-(4-hydroxy-4-((4-methylpiperazin-1-yl)methyl)pip-eridin-1-yl)pyridin-2-yl)amino)-4-(imidazo[1,2-a]pyridin-3-yl)-2,3-dihydro-1H-pyrrolo[3,4-c]pyridin-1-one]
> 7.00	O=C1NCc2c(-c3cnc4cc(CO)ccn34)ccc(Nc3ccc(N4CCOCC4)cn3)c21 [I-196, 4-[7-(hydroxymeth-yl)imidazo[1,2-a]pyridin-3-yl]-7-[(5-morpholino-2-pyridyl)amino] isoindolin-1-one]
< 6.00	O=C1NCc2c(-c3c[nH]c4ccccc34)ncc(Nc3ccc(N4CCC(F)(F)CC4)cn3)c21 [I-12, 7-[[5-(4,4-difluoro-1-piperidyl)-2-pyridyl]amino]-4-(1H-indol-3-yl)-2,3-dihydropyrrolo [3,4-c]pyridin-1-one]
6.00 to 7.00	CN1CCN(c2ccc(Nc3ccc(-c4cn(C)c5ncccc45)c4c3C(=O)NC4)nc2)CC1 [I-22, 7-[[5-(4-methylpiperazin-1-yl)-2-pyridyl]amino]-4-(1-methylpyrrolo [2,3-b]pyridin-3-yl)-isoindolin-1-one]
> 7.00	CC(C)(O)[C@H]1CCCN(c2ccc(Nc3cnc(-c4cnc5ccccn45)c4c3C(=O)NC4)nc2)C1 [I-210, 7-[[5-[(3S)-3-(1-hydroxy-1-methyl-ethyl)-1-piperipyl]-2-pyridyl]-amino]-4-imidazo[1,2-a]pyridin-3-yl-2.3-dihydropyrrolo [3,4-c]pyridin-1-one]
> 7.00	Cc1ccc2ncc(-c3ccc(Nc4ccc(N5CCN(C)CC5)cn4)c4c3CNC4=O)n2c1 [I-51, 4-(6-methylimidazo [1,2-a]pyridin-3-yl-)-7-[[5-(4-methylpiperazin-1-yl)-2-pyridyl]amino] isoindolin-1-1-one]
> 7.00	CN1CC(O)(C2CCCN(c3ccc(Nc4ccc(-c5cnc6cc(F)ccn56)c5c4C(=O)NC5)nc3)C2)C1 (stereo in doubt) [I-678, (R)-4-(7-fluoroimidazo [1,2-a]pyridin-3-yl)-7-((5-(3-(3-hydroxy-1-methylazetidin-3-yl)piperidin-1-yl)pyridin-2-yl)amino)isoin-dolin-1-one]
6.00 to 7.00	O=C1NCc2c(-c3cnn4c3CCCC4)ncc(Nc3ccc(N4CCC(O)CC4)cn3)c21 [I-330, 7-((5-(4-hydroxypiperidin-1-yl)pyridin-2-yl)amino)-4-(4,5,6,7-tetrahydropyra-zolo[1,5-a]pyridin-3-yl)-2,3-dihydro-1H-pyrrolo[3,4-c]pyridin-1-one]

From patent publication US11021481B2, “Substituted isoindolin-1-ones and 2,3-dihydro-1h-pyrrolo[3,4-c]pyridin-1-ones as HPK1 antagonists” (Nimbus Saturn, Inc., priority 2019, dated 2021)
